Source: ChEMBL document CHEMBL1201862, “PubChem BioAssay data set” (2004)
Where a name gives a salt, the structure may show the parent alone. Activity calls are given as the source filed them.

Key:
[1] = biological target: Luciferin 4-monooxygenase (Photinus pyralis, UniProt P08659); test: inhibition of purified Photinus pyralis luciferase – biochemical, luminescence, dose response (AID 1891)
[2] = Luminescence Cell-Based Dose Confirmation HTS to Identify Inhibitors of Platelet Dense Granule Release. [Related pubchem assays: 1663 (Primary HTS), 1678 (Summary of Project)]; assay type: functional
Cytochrome P450 2C19 = Cytochrome P450 2C19 (Homo sapiens, UniProt P33261); test: Cytochrome panel assay with activity outcomes. Panel member name: p450-cyp2c19 Compounds with AC50 equal or less than 10 uM are considered active; assay type: functional
Cytochrome P450 2C19, sequence (P33261 whole entry): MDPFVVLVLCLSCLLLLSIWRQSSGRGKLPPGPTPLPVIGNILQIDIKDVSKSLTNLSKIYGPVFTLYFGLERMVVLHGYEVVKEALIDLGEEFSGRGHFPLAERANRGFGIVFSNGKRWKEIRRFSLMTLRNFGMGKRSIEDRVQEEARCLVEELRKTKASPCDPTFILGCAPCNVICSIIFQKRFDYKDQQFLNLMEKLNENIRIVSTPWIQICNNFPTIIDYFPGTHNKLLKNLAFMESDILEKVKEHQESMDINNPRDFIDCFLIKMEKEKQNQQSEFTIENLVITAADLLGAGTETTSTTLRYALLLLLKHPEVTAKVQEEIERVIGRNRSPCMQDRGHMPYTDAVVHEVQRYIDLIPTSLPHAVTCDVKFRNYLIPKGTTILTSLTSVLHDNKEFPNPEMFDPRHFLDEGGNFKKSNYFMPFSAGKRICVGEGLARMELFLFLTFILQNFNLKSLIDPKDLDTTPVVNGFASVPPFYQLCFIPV

Protein RecA = biological target: T1, Protein RecA (Mycobacterium tuberculosis, UniProt P9WHJ3); test: Fluorescence Cell-Free Homogeneous Dose Retest to Identify Inhibitors of RecA-Intein Splicing Activity. [Related pubchem assays (depositor defined):AID2097, AID2223, AID489010, AID492950]; assay type: functional
T1 sequence (P9WHJ3 whole entry): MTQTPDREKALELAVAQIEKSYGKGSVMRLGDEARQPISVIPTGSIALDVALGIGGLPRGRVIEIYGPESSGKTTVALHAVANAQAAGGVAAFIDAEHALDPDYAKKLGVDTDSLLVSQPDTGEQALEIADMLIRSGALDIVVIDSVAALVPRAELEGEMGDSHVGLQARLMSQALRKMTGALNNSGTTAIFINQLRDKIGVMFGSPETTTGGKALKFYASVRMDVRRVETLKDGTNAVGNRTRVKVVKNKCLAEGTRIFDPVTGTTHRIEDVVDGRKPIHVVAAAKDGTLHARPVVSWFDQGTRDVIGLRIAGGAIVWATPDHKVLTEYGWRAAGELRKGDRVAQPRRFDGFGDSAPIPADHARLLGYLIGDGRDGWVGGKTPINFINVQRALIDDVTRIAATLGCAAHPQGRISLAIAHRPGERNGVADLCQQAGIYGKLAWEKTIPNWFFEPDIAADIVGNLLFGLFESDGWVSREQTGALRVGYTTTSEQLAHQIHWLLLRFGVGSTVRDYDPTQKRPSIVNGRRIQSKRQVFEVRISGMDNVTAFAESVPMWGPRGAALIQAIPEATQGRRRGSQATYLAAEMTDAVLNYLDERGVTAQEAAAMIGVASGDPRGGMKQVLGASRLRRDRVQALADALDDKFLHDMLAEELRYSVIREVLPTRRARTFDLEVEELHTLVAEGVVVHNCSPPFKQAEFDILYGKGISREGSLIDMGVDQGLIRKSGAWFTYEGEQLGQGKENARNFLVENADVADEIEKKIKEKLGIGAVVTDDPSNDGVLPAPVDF

[3] = biological target: T2, Replicative DNA helicase DnaB (Mycobacterium tuberculosis, UniProt P9WMR3); test: DnaB intein splicing inhibitors, dose response, biochemical, cell-free fluorescence (AID 449749); assay type: functional
T2 sequence (P9WMR3 whole entry): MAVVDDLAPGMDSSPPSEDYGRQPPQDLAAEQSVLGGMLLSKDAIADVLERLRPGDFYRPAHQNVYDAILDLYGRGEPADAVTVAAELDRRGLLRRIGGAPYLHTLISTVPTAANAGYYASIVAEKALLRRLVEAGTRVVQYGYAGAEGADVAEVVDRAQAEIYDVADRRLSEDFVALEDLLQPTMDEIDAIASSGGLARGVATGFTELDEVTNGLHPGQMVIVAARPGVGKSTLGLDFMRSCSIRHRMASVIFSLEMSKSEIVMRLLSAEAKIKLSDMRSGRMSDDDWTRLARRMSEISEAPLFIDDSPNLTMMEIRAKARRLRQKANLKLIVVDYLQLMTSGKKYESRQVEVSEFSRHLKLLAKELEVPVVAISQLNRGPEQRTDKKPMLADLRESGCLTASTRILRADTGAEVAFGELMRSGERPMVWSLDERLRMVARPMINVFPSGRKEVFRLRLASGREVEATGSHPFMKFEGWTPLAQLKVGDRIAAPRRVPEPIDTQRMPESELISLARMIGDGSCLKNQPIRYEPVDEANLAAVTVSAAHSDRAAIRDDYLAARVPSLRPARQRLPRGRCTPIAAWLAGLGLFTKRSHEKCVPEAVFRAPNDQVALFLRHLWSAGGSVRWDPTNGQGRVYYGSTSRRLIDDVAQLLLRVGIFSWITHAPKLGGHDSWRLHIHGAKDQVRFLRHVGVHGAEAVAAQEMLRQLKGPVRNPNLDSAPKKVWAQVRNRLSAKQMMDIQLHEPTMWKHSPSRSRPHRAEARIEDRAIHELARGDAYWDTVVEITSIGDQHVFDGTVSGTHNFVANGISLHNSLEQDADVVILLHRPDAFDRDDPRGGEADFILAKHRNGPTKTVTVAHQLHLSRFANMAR

[4] = Trypanosoma cruzi growth suppression in host cells – NIH3T3 host cells, beta-gal luminescence, confirmation (AID 2044); assay type: functional, cell-based;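 also: intracellular parasites grown in NIH/3T3 mouse fibroblasts as host cells; luminescent beta-galactosidase reporter signal from transgenic T. cruzi replicating inside host cells; inhibitors lower the luminescence signal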
[5] = Luminescence Cell-Based Dose Retest to Confirm Inhibitors of Cancer Stem Cells. [Related pubchem assays (depositor defined):AID2717, AID2721]; assay type: functional; settings: Homo sapiens
[6] = NIH3T3 cell viability loss – ATP luminescence, mouse fibroblasts, counter-screen, dose response (AID 2010); assay type: functional, cell-based;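 also: cells exposed to compound for about 90 hours before reading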
Cytochrome P450 2C9 = Cytochrome P450 2C9 (Homo sapiens, UniProt P11712)
Cytochrome P450 2C9, sequence (P11712 whole entry): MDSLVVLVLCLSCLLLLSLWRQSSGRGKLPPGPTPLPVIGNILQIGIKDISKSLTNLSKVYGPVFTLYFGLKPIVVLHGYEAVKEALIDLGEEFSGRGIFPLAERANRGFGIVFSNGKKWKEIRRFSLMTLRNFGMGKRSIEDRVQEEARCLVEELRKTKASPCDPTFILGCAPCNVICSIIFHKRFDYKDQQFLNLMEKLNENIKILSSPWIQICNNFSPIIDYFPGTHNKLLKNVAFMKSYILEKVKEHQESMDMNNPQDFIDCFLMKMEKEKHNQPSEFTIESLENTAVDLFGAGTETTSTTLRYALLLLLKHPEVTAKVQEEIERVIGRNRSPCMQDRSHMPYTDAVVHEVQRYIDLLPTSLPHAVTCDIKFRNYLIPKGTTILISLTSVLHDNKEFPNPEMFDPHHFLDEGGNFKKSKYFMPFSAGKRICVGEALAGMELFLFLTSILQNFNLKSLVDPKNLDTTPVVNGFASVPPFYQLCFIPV

Cytochrome P450 3A4 = Cytochrome P450 3A4 (Homo sapiens, UniProt P08684);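 also: CYP3A4 tested as one member of a cytochrome P450 panel screen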
Cytochrome P450 3A4, sequence (P08684 whole entry): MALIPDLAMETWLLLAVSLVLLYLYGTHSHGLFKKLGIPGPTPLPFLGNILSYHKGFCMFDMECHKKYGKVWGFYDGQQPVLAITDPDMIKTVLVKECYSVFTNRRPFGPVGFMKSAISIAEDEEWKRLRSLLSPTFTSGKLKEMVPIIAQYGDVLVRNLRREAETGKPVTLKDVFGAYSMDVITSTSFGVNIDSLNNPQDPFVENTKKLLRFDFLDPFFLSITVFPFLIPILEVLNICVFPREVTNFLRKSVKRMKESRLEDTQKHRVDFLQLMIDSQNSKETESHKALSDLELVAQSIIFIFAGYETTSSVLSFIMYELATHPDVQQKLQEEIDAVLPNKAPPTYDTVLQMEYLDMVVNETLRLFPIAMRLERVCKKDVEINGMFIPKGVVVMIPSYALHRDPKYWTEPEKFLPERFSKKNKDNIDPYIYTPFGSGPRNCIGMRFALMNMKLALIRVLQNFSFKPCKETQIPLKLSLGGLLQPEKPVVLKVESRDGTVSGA

[7] = viability of uninfected HEp-2 cells – cell-based, HTS, cytotoxicity control for RSV inhibitor project, dose response (AID 2410); assay type: functional; settings: human respiratory syncytial virus
INS1 = test: INS-1E survival protection against cytokine death – cell-based, luminescence, retest, dose response (AID 449756); assay type: functional; settings: Rattus norvegicus;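 also: cell death triggered by IL-1 beta plus TNF-alpha plus IFN-gamma mixture; protective hits raise ATP signal compared with cytokine alone wells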

Luciferin 4-monooxygenase, sequence (P08659 whole entry): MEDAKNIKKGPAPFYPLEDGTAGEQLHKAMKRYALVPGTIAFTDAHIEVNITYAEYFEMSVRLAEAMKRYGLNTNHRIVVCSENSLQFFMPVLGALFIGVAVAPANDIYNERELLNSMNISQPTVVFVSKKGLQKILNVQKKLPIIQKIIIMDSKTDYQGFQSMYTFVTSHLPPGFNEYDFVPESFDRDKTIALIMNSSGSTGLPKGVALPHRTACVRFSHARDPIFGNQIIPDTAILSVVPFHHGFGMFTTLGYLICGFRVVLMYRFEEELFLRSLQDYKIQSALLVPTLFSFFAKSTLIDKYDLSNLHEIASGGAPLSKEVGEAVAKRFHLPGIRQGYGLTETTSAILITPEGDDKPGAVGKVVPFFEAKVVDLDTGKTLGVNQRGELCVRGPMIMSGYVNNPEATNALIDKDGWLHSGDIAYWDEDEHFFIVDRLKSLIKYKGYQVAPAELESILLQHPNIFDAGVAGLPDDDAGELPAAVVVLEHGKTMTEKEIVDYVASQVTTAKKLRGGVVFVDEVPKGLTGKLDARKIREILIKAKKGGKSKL

## Nc1cc(-c2ccccc2)nn1Cc1ccc(Cl)cc1
[1]
  EC50: > 112 µM (not active)
[2]
  EC50: > 112 µM (not active)

## CCOC(=O)c1cn(-c2nc(-c3ccc(Cl)cc3)cs2)c2c(F)c(N3CC(C)OC(C)C3)c(F)cc2c1=O (stereo not drawn)
Cytochrome P450 2C19; read-out: AC50
  AC50: 17.8 µM (inconclusive)

## O=C(Oc1ccc(N(C(=O)c2ccncc2)S(=O)(=O)c2ccc(Cl)cc2)cc1)c1ccncc1
Protein RecA
  EC50: 16.4 µM (active)
[3]
  AC50: 9.26 µM (active)

## COCCSc1ccccc1C(=O)Nc1ccc2c(c1)OCO2
[1]
  EC50: > 112 µM (not active)
[2]
  EC50: > 112 µM (not active)

## COCCN(C(=O)COC(=O)CCc1nc2ccccc2s1)c1c(N)n(Cc2ccccc2)c(=O)[nH]c1=O
[1]
  EC50: > 112 µM (not active)
[2]
  EC50: > 112 µM (not active)

## COc1nc(C(=N)NO)nc(N2CCCCC2)n1
Cytochrome P450 2C19; read-out: AC50
  AC50: 39.8 µM (inconclusive)

## CC(C)C(=O)Nc1ccc(NC(=S)NC(=O)c2ccccc2F)cc1
[1]
  EC50: > 112 µM (not active)
[2]
  EC50: > 112 µM (not active)

## COC(=O)c1ccccc1Oc1cc(C(F)(F)F)nc(-c2ccccn2)n1
[1]
  EC50: > 112 µM (not active)
[2]
  EC50: > 112 µM (not active)

## Cc1cc(C)n(C(=O)c2cccc(S(=O)(=O)N3CCCCC3)c2)n1
[1]
  EC50: > 112 µM (not active)
[2]
  EC50: > 112 µM (not active)

## CCOC(=O)c1c(NC(=O)CSc2nc3cc(C)ccc3[nH]2)sc2c1CC(C)(C)NC2(C)C
[4]
  EC50: 0.855 µM (active)
[5]
  AC50: 7.46 µM (active)
[6]
  EC50: 18.6 µM (active)

## O=c1nc(-c2ccccc2)n(-c2ccccc2)c2ncccc12
Cytochrome P450 2C19; read-out: AC50
  AC50: 22.4 µM (inconclusive)

## CCn1c(S)nnc1-c1ccoc1C
Cytochrome P450 2C9
  AC50: 31.6 µM (inconclusive)
Cytochrome P450 2C19; read-out: AC50
  AC50: 28.2 µM (inconclusive)

## Cc1nc2cnc(Oc3ccccc3)nc2n(-c2ccccc2)c1=O
Cytochrome P450 2C9
  AC50: 25.1 µM (inconclusive)
Cytochrome P450 3A4
  AC50: 25.1 µM (inconclusive)

## CCOC(=O)CN1C(=O)C(O)=C(C(C)=O)C1c1ccc(F)cc1 (stereo not drawn)
[1]
  EC50: > 112 µM (not active)
[2]
  EC50: > 112 µM (not active)

## COC(=O)[C@@]1(Cc2ccc(OC)cc2)[C@@H]2C(=CC(=O)[C@H]2CC(=O)C(=O)N(C)C)CN1C(=O)c1ccccc1
Cytochrome P450 2C9
  AC50: 25.1 µM (inconclusive)
Cytochrome P450 3A4
  AC50: 2.51 µM (inconclusive)

## COc1ccc(-c2[nH]nc3c2C(c2ccncc2)C(C#N)=C(N)O3)cc1 (stereo not drawn)
Protein RecA
  EC50: 2.26 µM (active)
[3]
  AC50: 8.02 µM (active)

## FC(F)(F)c1nnc(-c2ccccc2)nc1Oc1ccc(Cl)cc1Cl
[7]
  CC50: 31.4 µM (active)
Protein RecA
  EC50: 0.481 µM (active)
[3]
  AC50: 1.44 µM (active)

## Sc1nnc(-c2ccncc2)n1CC1CCCO1 (stereo not drawn)
Cytochrome P450 2C9
  AC50: 28.2 µM (inconclusive)
Cytochrome P450 3A4
  AC50: 22.4 µM (inconclusive)
Cytochrome P450 2C19; read-out: AC50
  AC50: 31.6 µM (inconclusive)

## Cc1ccc(C2CCN(C(=O)Nc3ccccc3)C2)cc1 (stereo not drawn)
[1]
  EC50: > 112 µM (not active)
[2]
  EC50: > 112 µM (not active)

## COC(=O)c1ccc(/C=C/c2c(-c3ccc(OC)cc3)oc3ccc(N4CCOCC4)cc23)cc1
[5]
  AC50: 2 µM (active)

## O=C(/C=C/c1ccco1)NCC1OCCc2ccccc21 (stereo not drawn)
[5]
  AC50: > 195 µM (inactive)

## C[Se]C[C@@H](N)C(=O)O
Cytochrome P450 3A4
  AC50: 1.26 µM (inconclusive)
Cytochrome P450 2C19
  AC50: inconclusive

## COc1cc2cc(CN(CCCO)S(=O)(=O)c3ccccc3Cl)c(O)nc2cc1OC
Cytochrome P450 2C19; read-out: AC50
  AC50: 39.8 µM (inconclusive)

## O=C(Nc1ccc(S(=O)(=O)NCc2ccco2)cc1)c1ccc(F)cc1
[1]
  EC50: > 112 µM (not active)
[2]
  EC50: > 112 µM (not active)

## N=C1O[C@@H](c2c[nH]c3ccc(OCc4ccccc4)cc23)C(O)=C1O
Cytochrome P450 3A4
  AC50: 3.16 µM (inconclusive)
Cytochrome P450 2C19; read-out: AC50
  AC50: 6.31 µM (inconclusive)

## S=C(Nc1ccccc1Cl)N(CCCN1CCOCC1)Cc1ccco1
[1]
  EC50: > 112 µM (not active)
[2]
  EC50: > 112 µM (not active)

## CCOC(=O)C1CCCN(C(=O)C2CCN(S(=O)(=O)N3CCC4(CC3)OCCO4)CC2)C1 (stereo not drawn)
Cytochrome P450 3A4
  AC50: 20 µM (inconclusive)
Cytochrome P450 2C19; read-out: AC50
  AC50: 35.5 µM (inconclusive)

## CCC(C)OC(=O)C1=C(C)OC23OC(N)=C(C#N)C12C(=O)c1ccccc13 (stereo not drawn)
[1]
  EC50: > 112 µM (not active)
[2]
  EC50: > 112 µM (not active)

## Cc1ccc(S(=O)(=O)Nc2ccc(C(OC(=O)c3ccccc3[N+](=O)[O-])(C(F)(F)F)C(F)(F)F)cc2)cc1
[5]
  AC50: 6.11 µM (active)
INS1
  AC50: 14.3 µM (active)

## O=C(c1ccccc1NS(=O)(=O)c1cccc([N+](=O)[O-])c1)N1CCOCC1
Cytochrome P450 2C9
  AC50: 7.94 µM (inconclusive)
Cytochrome P450 3A4
  AC50: 17.8 µM (inconclusive)

## C#CCOc1ccc(OC)cc1C(c1c(C)n[nH]c1O)c1c(C)n[nH]c1O
Protein RecA
  EC50: 0.187 µM (active)
[3]
  AC50: 0.405 µM (active)

## C[C@H](CO)N1C[C@H](C)[C@H](CN(C)Cc2ccc(-c3ccccc3)cc2)Oc2ccc(NS(=O)(=O)c3ccccc3)cc2CC1=O
[5]
  AC50: 5.07 µM (active)

## Cc1cccc(/N=C2\C(Cl)=C(O)OC2OC(=O)c2ccco2)c1 (stereo not drawn)
Protein RecA
  EC50: 12.9 µM (active)
[3]
  AC50: 13.8 µM (active)

## CCOc1ccc(/C=N/NC(=O)c2ccoc2C)cc1OC
[1]
  EC50: 28.3 µM (active)
[2]
  EC50: 6.04 µM (active)

## O=C(Nc1ccccc1C(=O)N/N=C/c1ccco1)c1ccc(Cl)cc1
[1]
  EC50: 0.192 µM (active)
[2]
  EC50: 10.9 µM (active)

## CC(/C=C/c1ccco1)=N/NC(=O)c1ccccc1Cl
Cytochrome P450 3A4
  AC50: 31.6 µM (inconclusive)
Cytochrome P450 2C19; read-out: AC50
  AC50: 39.8 µM (inconclusive)

## Cn1cc(/C=N/n2cnc3sc4c(c3c2=O)CCCC4)c2ccccc21
Cytochrome P450 2C9
  AC50: 39.8 µM (inconclusive)
Cytochrome P450 3A4
  AC50: 22.4 µM (inconclusive)

## CCc1[nH]nc2c1C(Cc1ccccc1)C(C#N)=C(N)O2 (stereo not drawn)
Protein RecA
  EC50: 6.37 µM (active)
[3]
  AC50: 22.3 µM (active)

## Cc1c(O)cccc1C(=O)N[C@@H](CSc1ccccc1)[C@H](O)CN1C[C@H]2CCCC[C@H]2C[C@H]1C(=O)NC(C)(C)C [NELFINAVIR MESYLATE]
[5]
  AC50: 4.22 µM (active)
